In US20230103444A1 (The Regents of the University of Colorado, a Body Corporate, priority 2020, published 2023):
Read-outs that look alike come from different tables or passages of the source.

Key:
HCT116 tumor organoids = test: Tumor organoid cytotoxicity (CellTiter-Glo 3D); format: cell-based, human; details: Homo sapiens
Protocol: (§1) Cell based cytotoxicity dose response and combination studies. […] Plates were then incubated for 3 days before treatment.
Cell Line Tumor Organoid Culture.
(§2) Tumor Organoid Cytotoxicity.

[1] = system: CRC042 patient-derived tumor organoids; test: Patient tumor organoid cytotoxicity; format: cell-based; details: Homo sapiens; single agent, Table 4A
[2] = Human microsomal stability; format: in vitro ADME; details: human microsomes, Table 6, read-out: Microsomal stability Human t1/2
[3] = system: SW620 quasi-mesenchymal (GFP+) tumor xenografts; test: Antitumor activity by oral gavage against SW620 quasi-mesenchymal (GFP+) xenografts; format: in vivo, athymic nude mice
Protocol: (Esquer et al., 2021) Five days after cell injection, injected mice were randomized into three groups for treatment (Tx). Group 1 (12 mice) received control treatment of gavage vehicle (10% DMSO, 90% PEG 400 (polyethylene glycol 400) by volume). […] Mice were treated once a day, 5 days a week PO (via oral gavage). Mice were weighed and tumor volume assessed twice a week by caliper measurement as illustrated in FIGS. 21A and 21B. At sacrifice, tumors were weighed and measured. In addition, gross observations on condition of mice were made and samples of plasma, tumors, liver spleen and kidneys were collected for further assessment, e.g., drug quantification and toxicity assessment.

[4] = Mouse liver microsome stability; details: CD-1, mouse, liver microsomes, pH 7.4, Microsomal stability Mouse t1/2 (min), Table 6
Protocol: Microsome stability. CD-1 mouse microsomes were commercially purchased and the reactions were performed as previously described. […] The master mix was pre-incubated at 37° C. for 5 min, then 1 mM NADPH was added to start the microsomal activity reaction and maintained at 37° C. throughout the time course. Reactions were stopped at 0, 5, 15, 30, 45, and 60 min by adding 200 μL acetonitrile and analyzed by mass spectrometry. The appropriate microsome controls were also performed in the same reaction conditions.

SW620 tumor organoids [5] = test: Synergy studies with SN38 (LOEWE synergy scores); format: cell-based, human; design: key to LOEWE Synergy Score: % response beyond expectation; <-10 antagonism, -10–10 additive, >10 synergy; details: for LOEWE Synergy Score: compound at its IC50 (6: 5 μM; 6.3, 6.11: 3 μM)
Protocol: as §1
(e.g., synergy score 20 corresponds to 20% of response beyond expectation). According to our experience, the synergy scores near 0 gives limited confidence on synergy or antagonism.
When the synergy score is: • Less than −10: the interaction between two drugs is likely to be antagonism; • From −10 to 10: the interaction between two drugs is likely to be additivity; • Larger than 10: the interaction between two drugs is likely to be synergy.

[6] = Pharmacokinetics in CD-1 mice; details: oral gavage (p.o.) 50 mg/kg
Protocol: Whole blood was harvested at specific time points and the separated plasma frozen at −80° C. for storage or used for LC-MS/MS analysis.

SW620 tumor organoids [7] = test: Tumor organoid cytotoxicity (CellTiter-Glo 3D); details: Homo sapiens
[8] = system: CRC102 patient-derived tumor organoids; test: Patient tumor organoid cytotoxicity; format: cell-based; details: Homo sapiens; single agent, Table 4A
Protocol: Patient Cell Tumor Organoid Culture. CRC048 and CRC102 patient cell samples were expanded and cultured as PDTOs using reported methodologies and reagents. (Drost et al., 2016; Sato et al., 2011) Briefly, patient cells were washed with PBS, digested with TrypLE, and filtered through 100 μm cell strainer before used in 3D cell culture. Patient cells were seeded at 5,000 cells per well in 96-well plates, coated with 2% Matrigel, and allowed to self-assemble as PDTOs over 72 h.
as §2

SW620 tumor organoids [9] = system: SW620 tumor organoids
[10] = combination of 6.11 and irinotecan

Protocol for SW620 tumor xenografts: In vivo studies. […] Body weight and tumor volumes were monitored 2×/week. […] In addition, irinotecan was administered i.p. at 50 mg/kg.

## Cc1cc(Nc2ccc(NC(=O)Cc3cc(Br)cs3)cc2)nc(N2CCCC2)n1 [Compound 6.11, 2-(4-bromothiophen-2-yl)-N-(4-((6-methyl-2-(pyrrolidin-1-yl)pyrimidin-4-yl)amino)phenyl)-acetamide]
HCT116 tumor organoids; HCT-116, 72 h, Table 6, read-out: 3 D Cytotoxicity 72 hr IC50 (μM) HCT116
  IC50: 3.5 µM
HCT116 tumor organoids; HCT-116, single agent, Table 4A, read-out: Tumor Organoid Cytotoxicity IC50 (μM) HCT116
  IC50: 3.48 µM
[1]
  IC50: 4.5 µM
[2]
  half-life: 4.38 h
[3]; oral gavage 75 and 125 mg/kg vs vehicle
  mouse body weight: no significant difference in body weight
[3]; oral gavage 75 and 125 mg/kg, once a day 5 days a week, 27 days
  tumor volume: significant dose dependent decrease in tumor volume
[4]
  half-life at 10 μM: 0.954 h
SW620 tumor organoids [5]; SN38 0.64 nM
  LOEWE Synergy Score: 46
SW620 tumor organoids [5]; SN38 16 nM
  LOEWE Synergy Score: 52
SW620 tumor organoids [5]; SN38 80 nM
  LOEWE Synergy Score: 49
SW620 tumor organoids [5]; SN38 400 nM
  LOEWE Synergy Score: 48
SW620 tumor organoids [5]; SN38 2000 nM
  LOEWE Synergy Score: 36
SW620 tumor organoids [5]; SN38 10000 nM
  LOEWE Synergy Score: 25
SW620 tumor organoids [5]; SN38 […]
  LOEWE Synergy Score: 54
SW620 tumor organoids [5]; killing SW620 tumor organoids
  synergism with irinotecan (and SN38), in words: synergism
[6]
  oral bioavailability, uptake in the plasma: 44%
SW620 tumor xenografts; 6.11 1×/day + irinotecan 50 mg/kg i.p., up to 20 days, M-phenotype xenografts, vs irinotecan alone or control
  tumor volume, combination with irinotecan: significantly inhibits colorectal cancer SW620 tumor xenografts
SW620 tumor xenografts; 6.11 + irinotecan vs irinotecan alone, last treatment day 33
  tumor volume after the last treatment, combination with irinotecan: significantly inhibits colorectal SW620 tumors beyond the last treatment
SW620 tumor xenografts; 6.11 + irinotecan, compared to irinotecan alone and control
  survival of tumor-bearing mice, combination with irinotecan: significantly increases the survival
SW620 tumor xenografts; [10]
  difference in tumor volume, irinotecan alone vs combination, 8 days post treatment: 3.4 fold
  drop of tumor volume post treatment: ~1.5 fold
SW620 tumor organoids [7]; SW-620, 72 h, read-out: 3 D Cytotoxicity 72 hr IC50 (μM) SW620
  IC50: 2.6 µM
SW620 tumor organoids [7]; SW-620, read-out: IC50 of cytotoxicity in SW620 cells
  IC50: < 10 µM
SW620 tumor organoids [7]; SW-620, read-out: Tumor Organoid Cytotoxicity IC50 (μM) SW620
  IC50: 2.6 µM
[8]
  IC50: 8.38 µM

## Cc1cc(Nc2ccc(NC(=O)Cn3cnc4ccccc43)cc2)nc(N2CCCC2)n1 [Compound 6.28, 2-(1H-benzo[d]imidazole-1-yl)-N-(4-((6-methyl-2-(pyrrolidin-1-yl)pyrimidin-4-yl)amino)phenyl) acetamide]
SW620 tumor organoids [9]
  IC50: > 30 µM
